For assay [1], the target named is T1, Type-1 angiotensin II receptor (Bos taurus, UniProt P25104).
T1 sequence (P25104 whole entry): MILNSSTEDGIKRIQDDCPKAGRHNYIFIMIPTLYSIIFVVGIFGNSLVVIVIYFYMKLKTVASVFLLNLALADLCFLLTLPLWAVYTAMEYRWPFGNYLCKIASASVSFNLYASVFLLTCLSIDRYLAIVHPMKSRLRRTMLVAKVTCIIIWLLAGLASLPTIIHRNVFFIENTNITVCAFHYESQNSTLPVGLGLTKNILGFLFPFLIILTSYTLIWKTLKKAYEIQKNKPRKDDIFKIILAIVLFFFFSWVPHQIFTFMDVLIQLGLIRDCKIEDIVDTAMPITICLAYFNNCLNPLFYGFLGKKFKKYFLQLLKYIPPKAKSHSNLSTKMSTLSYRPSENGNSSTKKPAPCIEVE
Kind of assay: Inhibition of [125l]-All binding to bovine adrenal cortex. The assay is classed as tissue-based.

For assay [2], the system named is Rattus norvegicus. The assay is described as follows: Compound tested for in vivo inhibitory dose against All-induced pressor response in normotensive, conscious rats. Particulars: read-out: ID50 (the source's name). The assay is classed as functional.

The structures appear in SMILES notation. pIC50: −log10 of the molar value.

Consider `CCCc1cc(C(=O)O)c(CO)n1Cc1ccc(-c2ccccc2C(=O)O)cc1`, for which the pIC50 in assay [1] is 5.68. The ED50 in assay [2] stood at 5.9 mg/kg. Taken in the same sequence, the figures for `CCCCc1nc(CO)c(C(=O)O)n1Cc1ccc(-c2ccccc2C(=O)O)cc1` were 7.19 and 0.22 mg/kg. The corresponding values for `CCCCc1nc(Cl)c(C(=O)O)n1Cc1ccc(-c2ccccc2-c2nn[nH]n2)cc1` [CARBOXYLIC ACID METABOLITE] are 7.66 and 0.1 mg/kg.

On to `CCCCc1nc(Cl)c(C(=O)O)n1Cc1ccc(-c2ccccc2C(=O)O)cc1`, for which the ED50 in assay [2] was found to be 0.21 mg/kg. For the molecule `CCCc1cc(COC)c(C(=O)O)n1Cc1ccc(-c2ccccc2C(=O)O)cc1`, the pIC50 in assay [1] was 5.35. Moreover, the ED50 in assay [2] worked out at 4.2 mg/kg. Taken in the same sequence, the figures for `CCCCc1nc(Cl)c(CO)n1Cc1ccc(-c2ccccc2-c2nnn[nH]2)cc1` [LOSARTAN] were 6.92 and 0.3 mg/kg. The corresponding values for `CCCc1nc(CO)c(C(=O)O)n1Cc1ccc(-c2ccccc2C(=O)O)cc1` are 7.24 and 0.069 mg/kg. The corresponding values for `CCCc1nc(CO)c(C(=O)OCC)n1Cc1ccc(-c2ccccc2C(=O)O)cc1` are 6.08 and 1.5 mg/kg. `CCCc1nc(CO)c(CO)n1Cc1ccc(-c2ccccc2C(=O)O)cc1` gave a pIC50 in assay [1] of 5.57. For the same molecule, in assay [2], the ED50 was 2.1 mg/kg. The corresponding values for `CCCc1nc(C(=O)O)c(C(=O)O)n1Cc1ccc(-c2ccccc2C(=O)O)cc1` are 6.49 and 0.67 mg/kg. On to `CCc1nc(CO)c(C(=O)O)n1Cc1ccc(-c2ccccc2C(=O)O)cc1`, for which, in assay [1], the pIC50 was 6.82. For the same molecule, the ED50 in assay [2] was determined as 0.27 mg/kg. `CCCc1nc(C(=O)O)c(CO)n1Cc1ccc(-c2ccccc2C(=O)O)cc1`: the ED50 in assay [2] was 8.8 mg/kg. `CCCCc1nc(Cl)c(CO)n1Cc1ccc(-c2ccccc2C(=O)O)cc1` gave a pIC50 in assay [1] of 6.31. Moreover, in assay [2], the ED50 stood at 2.3 mg/kg.

As a reminder, the pIC50 is the negative decadic logarithm of the IC50, by convention in mol/L. Lower therefore signals a large IC50.

For the origin of these results see ChEMBL document CHEMBL1127869, “Angiotensin II receptor antagonists: imidazoles and pyrroles bearing hydroxymethyl and carboxy substituents” (Bioorg Med Chem Lett, 1994).
